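Growth conditions: 96-well plates. Treatment: test compound, 48 hours, 5 concentrations. Analysis: linear interpolation between bracketing concentrations; unreached endpoints set to highest concentration. Abbreviation: GI50, concentration required for 50% inhibition of growth. Definition used: TGI = concentration required for complete inhibition of growth.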
What was measured:
Assay in all cases: NCI anticancer screen, dose series, 48 h
UO-31 renal = system: UO-31 renal
UACC-257 melanoma = system: UACC-257 melanoma
K-562 leukemia = system: K-562 leukemia
ACHN renal = system: ACHN renal
NCI-H522 lung = system: NCI-H522 lung
SNB-19 CNS = system: SNB-19 CNS
SK-OV-3 ovarian = system: SK-OV-3 ovarian
PC-3 prostate = system: PC-3 prostate
HOP-92 NSCLC = system: HOP-92 NSCLC
T-47D breast = system: T-47D breast

SMILES | GI50 (UO-31 renal) | TGI (UO-31 renal) | GI50 (UACC-257 melanoma) | TGI (UACC-257 melanoma) | GI50 (K-562 leukemia) | TGI (K-562 leukemia) | GI50 (ACHN renal) | TGI (ACHN renal) | GI50 (NCI-H522 lung) | TGI (NCI-H522 lung) | GI50 (SNB-19 CNS) | TGI (SNB-19 CNS) | GI50 (SK-OV-3 ovarian) | TGI (SK-OV-3 ovarian) | GI50 (PC-3 prostate) | TGI (PC-3 prostate) | GI50 (HOP-92 NSCLC) | TGI (HOP-92 NSCLC) | GI50 (T-47D breast) | TGI (T-47D breast)
C=CCCCCCCCCC(=O)[O][Sn]([CH2]CCC)([CH2]CCC)[CH2]CCC | 0.132 µM | 0.276 µM | 0.144 µM | 0.291 µM | 0.181 µM | 0.457 µM | 0.164 µM | 0.31 µM | 0.141 µM | 0.296 µM | 0.198 µM | 0.384 µM | 0.149 µM | 0.306 µM | 187 nM | 0.409 µM | 75 nM | 0.24 µM | – | –
COc1cc([N+](=O)[O-])cc2c3c(n(C)c12)[C@@]1(C)CCC2c4ccc(OCc5ccccc5)cc4CCC2C1C3 (some centres undefined) | > 100 µM | > 100 µM | 85.6 µM | > 100 µM | 62.5 µM | > 100 µM | > 100 µM | > 100 µM | 53.6 µM | > 100 µM | 46.5 µM | > 100 µM | 54.5 µM | > 100 µM | > 100000 nM | > 100 µM | – | – | 43.1 µM | > 100 µM
Nc1nc(Cl)c2ncn(Cc3ccc(C45CC6CC(CC(C6)C4)C5)c(O)c3)c2n1 | 12.7 µM | 28.1 µM | 0.578 µM | 4.86 µM | – | – | 3.35 µM | 13.9 µM | 6.01 µM | 23.8 µM | 6.53 µM | 22.8 µM | 5.64 µM | 21.4 µM | 1730 nM | 4.44 µM | 1480 nM | 6.19 µM | 3.75 µM | 24.5 µM
CCC(C)c1c(Cl)nc(Cl)nc1Cl (centres undefined) | – | 33.4 µM | – | – | – | > 100 µM | – | 11.9 µM | – | 2.51 µM | – | 30.7 µM | – | > 100 µM | – | 44.1 µM | – | – | – | –
NC(=O)C(=O)N/N=C(\CC1(O)C(=O)Nc2ccccc21)c1ccc2ccccc2c1 (centres undefined) | – | > 100 µM | – | > 100 µM | – | 61.7 µM | – | > 100 µM | – | 41.6 µM | – | > 100 µM | – | > 100 µM | – | – | – | 87.8 µM | – | –
O=C1/C(=C/c2ccccc2)CNC/C1=C\c1ccccc1 | – | 3.87 µM | – | 10.6 µM | – | > 23.8 µM | – | 4.37 µM | – | 2.66 µM | – | 11.9 µM | – | 6.36 µM | – | – | – | 22.1 µM | – | –
O=c1c2cc([N+](=O)[O-])ccc2sc2ccsc12 | – | > 100 µM | – | > 100 µM | – | > 100 µM | – | > 100 µM | – | > 100 µM | – | > 100 µM | – | > 100 µM | – | – | – | > 100 µM | – | –
COc1ccc(-c2cc(=O)c3c(OC)c(OC)c(OC)cc3o2)cc1 | – | 87.7 µM | – | > 100 µM | – | > 100 µM | – | > 100 µM | – | 85.3 µM | – | > 100 µM | – | 88.2 µM | – | – | – | 79.9 µM | – | 62.4 µM
CC(C)(CC(=O)Nc1ccccc1)C(=O)O | – | > 100 µM | – | > 100 µM | – | > 100 µM | – | > 100 µM | – | – | – | > 100 µM | – | > 100 µM | – | > 100 µM | – | > 100 µM | – | > 100 µM
Nc1cc(N)c2nc(-c3ccccc3)c(Nc3ccc(Cl)c(Cl)c3)nc2c1 | 11.1 µM | 36.3 µM | 11.4 µM | 28.2 µM | 3.57 µM | > 100 µM | – | – | 5.3 µM | 21.7 µM | 12.9 µM | 30.2 µM | 13.7 µM | 31.3 µM | 3120 nM | 15.1 µM | – | – | 11.6 µM | 31.1 µM

Reference: PubChem BioAssay (NCI)
